# Species on record: Rattus norvegicus
# Assay: DrugMatrix - Regimen: Daily Repeat
# Assay type: toxicity, organism-based, Sprague-Dawley
# Design: regimen Daily Repeat, gender Male, age 6-8 weeks
# Details: in vivo, po, 0 mg/kg, route oral GAVAGE, dose level Control, vehicle 100 % WATER; for BASOPHIL / EOSINOPHIL / ERYTHROCYTE COUNT / HEMATOCRIT / HEMOGLOBIN / LEUKOCYTE COUNT / LYMPHOCYTE / MEAN CORPUSCULAR HEMOGLOBIN / MEAN CORPUSCULAR HEMOGLOBIN CONCENTRATION / MEAN CORPUSCULAR VOLUME / MONOCYTE / NEUTROPHIL / PLATELET COUNT: tissue Blood; for ALANINE AMINOTRANSFERASE / ALBUMIN / ALKALINE PHOSPHATASE / ASPARTATE AMINOTRANSFERASE / BLOOD UREA NITROGEN / CARBON DIOXIDE / CHLORIDE / CHOLESTEROL / CREATINE PHOSPHOKINASE / CREATININE / GLUCOSE / LACTATE DEHYDROGENASE / LIPASE / PHOSPHORUS / POTASSIUM / SODIUM / TOTAL BILIRUBIN / TOTAL PROTEIN / URIC ACID: tissue Plasma
smiles,measurement,setting,value
O=[Se](=O)([O-])[O-].[Na+].[Na+] [SODIUM SELENATE],BASOPHIL,"96 h, time 4 day",0.47%
same,EOSINOPHIL,"96 h, time 4 day",0.58%
same,ERYTHROCYTE COUNT,"96 h, time 4 day",6.84 x10E6/uL
same,HEMATOCRIT,"96 h, time 4 day",44.27%
same,HEMOGLOBIN,"96 h, time 4 day",14.08 G/DL
same,LEUKOCYTE COUNT,"96 h, time 4 day",13.39 x10E3/uL
same,LYMPHOCYTE,"96 h, time 4 day",83.57%
same,MEAN CORPUSCULAR HEMOGLOBIN,"96 h, time 4 day",20.57 pg
same,MEAN CORPUSCULAR HEMOGLOBIN CONCENTRATION,"96 h, time 4 day",31.77 G/DL
same,MEAN CORPUSCULAR VOLUME,"96 h, time 4 day",64.68 fL
same,MONOCYTE,"96 h, time 4 day",1.92%
same,NEUTROPHIL,"96 h, time 4 day",12.95%
same,PLATELET COUNT,"96 h, time 4 day",1533.67 x10E3/uL
same,ALANINE AMINOTRANSFERASE,"96 h, time 4 day",28.17 u/L
same,ALBUMIN,"96 h, time 4 day",3.82 G/DL
same,ALKALINE PHOSPHATASE,"96 h, time 4 day",354.33 u/L
same,ASPARTATE AMINOTRANSFERASE,"96 h, time 4 day",73.83 u/L
same,BLOOD UREA NITROGEN,"96 h, time 4 day",16 mg/dL
same,CARBON DIOXIDE,"96 h, time 4 day",27.17 mmol/L
same,CHLORIDE,"96 h, time 4 day",104.83 MEQ/L
same,CHOLESTEROL,"96 h, time 4 day",83.33 mg/dL
same,CREATINE PHOSPHOKINASE,"96 h, time 4 day",288 u/L
same,CREATININE,"96 h, time 4 day",0.33 mg/dL
same,GLUCOSE,"96 h, time 4 day",181.33 mg/dL
same,LACTATE DEHYDROGENASE,"96 h, time 4 day",173.17 u/L
same,LIPASE,"96 h, time 4 day",17.67 u/L
same,PHOSPHORUS,"96 h, time 4 day",11.5 mg/dL
same,POTASSIUM,"96 h, time 4 day",6.8 MEQ/L
same,SODIUM,"96 h, time 4 day",147 MEQ/L
same,TOTAL BILIRUBIN,"96 h, time 4 day",0.35 mg/dL
same,TOTAL PROTEIN,"96 h, time 4 day",6.35 G/DL
same,URIC ACID,"96 h, time 4 day",1.55 mg/dL
same,BASOPHIL,"[…], time 6 day",0.33%
same,EOSINOPHIL,"[…], time 6 day",0.85%
same,ERYTHROCYTE COUNT,"[…], time 6 day",6.98 x10E6/uL
same,HEMATOCRIT,"[…], time 6 day",38.58%
same,HEMOGLOBIN,"[…], time 6 day",14.25 G/DL
same,LEUKOCYTE COUNT,"[…], time 6 day",11.01 x10E3/uL
same,LYMPHOCYTE,"[…], time 6 day",85.07%
same,MEAN CORPUSCULAR HEMOGLOBIN,"[…], time 6 day",20.47 pg
same,MEAN CORPUSCULAR HEMOGLOBIN CONCENTRATION,"[…], time 6 day",31.45 G/DL
same,MEAN CORPUSCULAR VOLUME,"[…], time 6 day",64.9 fL
same,MONOCYTE,"[…], time 6 day",1.9%
same,NEUTROPHIL,"[…], time 6 day",11.42%
same,PLATELET COUNT,"[…], time 6 day",1289.67 x10E3/uL
same,BASOPHIL,"[…], time 14 day",0.52%
same,EOSINOPHIL,"[…], time 14 day",0.55%
same,ERYTHROCYTE COUNT,"[…], time 14 day",7.72 x10E6/uL
same,HEMATOCRIT,"[…], time 14 day",51.87%
same,HEMOGLOBIN,"[…], time 14 day",15.32 G/DL
same,LEUKOCYTE COUNT,"[…], time 14 day",16.2 x10E3/uL
same,LYMPHOCYTE,"[…], time 14 day",85.13%
same,MEAN CORPUSCULAR HEMOGLOBIN,"[…], time 14 day",19.85 pg
same,MEAN CORPUSCULAR HEMOGLOBIN CONCENTRATION,"[…], time 14 day",29.52 G/DL
same,MEAN CORPUSCULAR VOLUME,"[…], time 14 day",67.17 fL
same,MONOCYTE,"[…], time 14 day",1.7%
same,NEUTROPHIL,"[…], time 14 day",11.6%
same,PLATELET COUNT,"[…], time 14 day",1104.17 x10E3/uL
same,ALANINE AMINOTRANSFERASE,"[…], time 6 day",28.17 u/L
same,ALBUMIN,"[…], time 6 day",3.78 G/DL
same,ALKALINE PHOSPHATASE,"[…], time 6 day",385.33 u/L
same,ASPARTATE AMINOTRANSFERASE,"[…], time 6 day",78 u/L
same,BLOOD UREA NITROGEN,"[…], time 6 day",16.83 mg/dL
same,CARBON DIOXIDE,"[…], time 6 day",26.67 mmol/L
same,CHLORIDE,"[…], time 6 day",106.83 MEQ/L
same,CHOLESTEROL,"[…], time 6 day",82.67 mg/dL
same,CREATINE PHOSPHOKINASE,"[…], time 6 day",225.5 u/L
same,CREATININE,"[…], time 6 day",0.27 mg/dL
same,GLUCOSE,"[…], time 6 day",179.5 mg/dL
same,LACTATE DEHYDROGENASE,"[…], time 6 day",98.33 u/L
same,LIPASE,"[…], time 6 day",14.67 u/L
same,PHOSPHORUS,"[…], time 6 day",12.28 mg/dL
same,POTASSIUM,"[…], time 6 day",7.03 MEQ/L
same,SODIUM,"[…], time 6 day",150.33 MEQ/L
same,TOTAL BILIRUBIN,"[…], time 6 day",0.38 mg/dL
same,TOTAL PROTEIN,"[…], time 6 day",6.45 G/DL
same,URIC ACID,"[…], time 6 day",1.6 mg/dL
same,ALANINE AMINOTRANSFERASE,"[…], time 14 day",37 u/L
same,ALBUMIN,"[…], time 14 day",4.13 G/DL
same,ALKALINE PHOSPHATASE,"[…], time 14 day",342 u/L
same,ASPARTATE AMINOTRANSFERASE,"[…], time 14 day",71 u/L
same,BLOOD UREA NITROGEN,"[…], time 14 day",16.5 mg/dL
same,CARBON DIOXIDE,"[…], time 14 day",28.17 mmol/L
same,CHLORIDE,"[…], time 14 day",104 MEQ/L
same,CHOLESTEROL,"[…], time 14 day",70.67 mg/dL
same,CREATINE PHOSPHOKINASE,"[…], time 14 day",287.67 u/L
same,CREATININE,"[…], time 14 day",0.38 mg/dL
same,GLUCOSE,"[…], time 14 day",150.17 mg/dL
same,LACTATE DEHYDROGENASE,"[…], time 14 day",81.33 u/L
same,LIPASE,"[…], time 14 day",16 u/L
same,PHOSPHORUS,"[…], time 14 day",11.32 mg/dL
same,POTASSIUM,"[…], time 14 day",6.22 MEQ/L
same,SODIUM,"[…], time 14 day",147.33 MEQ/L
same,TOTAL BILIRUBIN,"[…], time 14 day",0.43 mg/dL
same,TOTAL PROTEIN,"[…], time 14 day",6.55 G/DL
same,URIC ACID,"[…], time 14 day",1.38 mg/dL
